# Data taken from patent US9951335B2, “Compositions and methods for treating otitis media and other conditions with inhibitors of CYLD” (Georgia State University Research Foundation, Inc., priority 2012, dated 2018).
# Like-named read-outs stand apart in the source and are kept apart here. Residues, ends and D or L forms follow the SMILES beside them. *: point of attachment. Cbz = O=C(OCc1ccccc1)*
# Key:
# CYLD [1] = experiment: NTHi-induced up-regulation of CYLD in epithelial cells (Q-PCR, Western blot); format: cell-based, human; settings: for NTHi-induced up-regulation of CYLD at both mRNA and protein levels: HMEEC, A549 and primary NHBE cells, conventional and air-liquid-interface culture
# Description: (§1) Phosphodiesterases (PDEs) have been recognized as therapeutic targets. […] For this reason, we initially sought to determine if PDEs act as key negative regulator for CYLD.
# [2] = test system: NTHi-induced inflammation; experiment: NTHi-induced inflammation in epithelial cells (NF-κB activation, IL-1β, IL-8, TNF-α; Q-PCR, ELISA); format: cell-based, human; settings: for concentration at which NTHi-induced inflammatory response was suppressed / NTHi-induced inflammatory response: HMEEC cell; for NTHi-induced inflammatory response: roflumilast at 1 μM
# Description: We next determined if PDE4 inhibition suppresses NTHi-induced inflammation. […] Despite showing that inhibiting PDE4 enhanced up-regulation of CYLD and suppressed NTHi-induced inflammation, it was still unclear whether inhibiting PDE4 suppressed inflammation by up-regulating CYLD or by inhibiting a positive regulator of inflammation (e.g., IKKβ).
# PDE4B / PDE4D = settings: known property, cited from earlier work
# lung fibrosis = experiment: S. pneumoniae-induced lung fibrosis in Cyld−/− mice (H&E, Masson's trichrome); format: in vivo, mouse
# Procedure: Cyld−/− mice were generated by homologous recombination as follows. The targeting construct was designed to disrupt the exons 2 and 3 with an IRES-LacZ/MC1-Neo cassette. The targeting plasmid was linearized and transfected into embryonic stem cells of a 129/S. Homologously recombined embryonic stem cells were injected into blastocysts that were subsequently transferred to foster mothers, to generate chimeric progeny. Generated chimeric progeny were backcrossed to C57BL/6J, and germline transmission was confirmed by PCR with tail DNA. Homozygous knockout of Cyld gene was confirmed by mRNA detection by RT-PCR and CYLD protein detection by western blot analysis in MEF cells and lung tissues. For S. pneumoniae-induced severe infections in WT and Cyld−/− mice, anaesthetized mice were intratracheally (i.t.) inoculated with live S. pneumoniae (5×10^7 CFU per mouse). Surviving mice from severe pneumonia were then sacrificed 2 weeks post S. pneumoniae infection for histopathological analysis. For TGF-β inoculation, anesthetized WT and Cyld−/− mice were i.t. inoculated with TGF-β (25-100 ng per mouse) for 6 hours, and lung tissues were then subjected to total mRNA and protein extraction. […]
# Smad3 [3] = experiment: Smad3 protein level in transfected cells by immunoblotting; format: cell-based, human
# Procedure: Western blot, immunoprecipitation and ubiquitination experiments were performed as follows. Western blots were performed using whole-cell extracts, separated on 8 or 10% SDS-PAGE gels, and transferred to polyvinylidine di& uoride membranes. The membrane was blocked with a solution of PBS containing 0.1% Tween 20 (PBS-T) and 5% BSA. The membrane was then incubated in a 1:2,000 dilution of a primary antibody in 5% BSA-PBS-T. After three washes in PBS-T, the membrane was incubated with 1:5,000 dilution of the corresponding secondary antibody in 3% non-fact skim milk-PBS-T. Respective proteins were visualized by using enhanced chemiluminescence detection reagents, according to the manufacturer's instructions. To conduct immunoprecipitation analysis, cell lysates were incubated with 1 μg of primary antibodies overnight, at 4° C., followed by 2-h incubation with protein A/G-agarose beads (Invitrogen). Immunoprecipitates were then suspended in a sample buffer, separated on 8% SDS-PAGE, transferred to polyvinylidine difluoride membrane, and detected by immunoblot analysis, as described above. […]
# CYLD [4] = experiment: CYLD up-regulation in the middle ear of mouse OM model (Q-PCR, IF staining); format: in vivo
# Description: as §1
# Ototopical administration works effectively when the eardrum is perforated either pathologically or surgically by tympanostomy tube insertion. Thus, we first determined if ototopical administration of rolipram up-regulates CYLD and suppresses inflammation in the middle ear of mice post NTHi inoculation.
# [5] = test system: NTHi-induced inflammation; experiment: NTHi-induced middle ear inflammation in mouse OM model (cytokines, otoscopy, histopathology); format: in vivo
# NF-κB = NF-κB activation induced by overexpressing constitutively active IKKβ or wild-type p65; format: cell-based
# Description: We next determined if PDE4 inhibitors may also suppress inflammation via directly inhibiting IKKβ, the key positive regulator of NF-κB-dependent inflammation.
# Smad3 [6] = experiment: Smad3 protein expression in cells incubated with Akt or PI3K inhibitor (immunoblotting); format: cell-based, mouse; settings: 20 μM; MEF cells from Cyld+/+ and Cyld−/− mice (FIG. 5d), cells (FIG. 5e)
# Procedure: FIG. 5 illustrates that CYLD decreases Smad3 stability by inhibiting Akt. (a) MEF cells from Cyld+/+ and Cyld−/− mice were transfected with siCon or siAkt1/2 and analysed by immunoblotting with the indicated antibodies. (b) SBE-promoter activity was determined in siCYLD-transfected A549 cells with or without siAkt co-transfection and stimulated with TGF-β. (c) SBE-promoter activity was determined in MEFs from Cyld+/+ and Cyld−/− mice pretreated with Akt inhibitor and stimulated with TGF-β. (d) MEF cells from Cyld+/+ and Cyld−/− mice were incubated with Akt inhibitor (20 μM), and cell lysates were analysed by immunoblotting with the indicated antibodies. (e) Cells were incubated with Akt inhibitor (20 μM) or LY294002 (20 μM), and cell lysates were analysed by immunoblotting with the indicated antibodies. (f) Lysates from cells transfected with HA-CYLD and Flag-Akt were immunoprecipitated with anti-CYLD antibody (upper panel) or anti-Akt antibody (lower panel), and interacting proteins were analysed by immunoblotting. […]
# Western blot, immunoprecipitation and ubiquitination experiments were performed as follows. […] Immunoprecipitates were then suspended in a sample buffer, separated on 8% SDS-PAGE, transferred to polyvinylidine difluoride membrane, and detected by immunoblot analysis, as described above. […]
# TGF-β-signalling = experiment: TGF-β-induced SBE-promoter activity in mouse MEF cells; format: cell-based; settings: Cyld−/− MEFs pretreated with inhibitor
# Procedure: (§2) The expression plasmids Flag-WT-CYLD, HA-WT-CYLD, Flag-H/N-CYLD, HA-C/S-CYLD, Flag-WT-Smad3, C/A-TβRI, and the reporter plasmids SBE-Luc, PAI-1-Luc, and NF-κB-Luc were previously described. Flag-WT-Akt1, pRK5-HA-Ub WT, pRK5-HA-Ub K63, and pRK5-HA-Ub K48 were from Addgene, and K to R mutants of Akt were generated with WT-Akt1 using QuickChange XL Site-Directed Mutagenesis kit (Stratagene). All transient transfections were carried out using TransIT-LT1 reagent (Minis) or Lipofectamine (Invitrogen) according to manufacturers' instructions.
# PAI-1 = experiment: TGF-β-induced PAI-1 expression (promoter activity, mRNA) in human cells; format: cell-based; settings: WT-CYLD-transfected cells pre-treated with MG-132; mRNA
# Procedure: Total RNA was isolated using TRIzol reagent following the manufacturer's instructions. Synthesis of complementary DNA from total RNA was performed with MultiScribe reverse transcriptase. Real-time quantitative PCR was performed using an ABI 7500 Sequence Detection System (Applied Biosystems). Relative quantities of mRNAs were calculated using the comparative threshold cycle method and normalized using human and mouse glyceraldehyde-3-phosphate dehydrogenase as an endogenous control. The primer sequences for mouse COL1A2, COL3A1, CTGF and PAI-1, and human PAI-1, CHIP, and Smad3 are as follows. Mouse CTGF: 5′-[…]-3′ (SEQ ID NO:1) and 5′-[…]-3′ (SEQ ID NO:2); mouse COL1A2: 5′-[…]-3′ (SEQ ID NO:3) and 5′-[…]-3′ (SEQ ID NO:4); mouse COL3A1: 5′-[…]-3′ (SEQ ID NO:5) and 5′-[…]-3′ (SEQ ID NO:6); mouse PAI-1: 5′-[…]-3′ (SEQ ID NO:7) and 5′-[…]-3′ (SEQ ID NO:8); human PAI-1: 5′-[…]-3′ (SEQ ID NO:9) and 5′-[…]-3′ (SEQ ID NO:10); human CHIP: 5′-[…]-3′ (SEQ ID NO:11) and 5′-[…]-3′ (SEQ ID NO:12).
# as §2
# [7] = ototopical pre- and post-inoculation administration, mouse OM model
structure (smiles),measurement,setting,value
O=C(Nc1c(Cl)cncc1Cl)c1ccc(OC(F)F)c(OCC2CC2)c1 [roflumilast],CYLD expression,CYLD [1],enhanced
same,concentration at which NTHi-induced inflammatory response was suppressed,[2],1 µM
same,NTHi-induced inflammatory response,[2],markedly suppressed
same,PDE4 subfamily selectivity (PDE4B versus PDE4D),PDE4B / PDE4D,more selective for PDE4B than for PDE4D
same,PDE4 subfamily selectivity (PDE4B versus PDE4D),PDE4B / PDE4D; listed as Roflumilast,more specific inhibitor for PDE4B
NC(=O)c1ccc(-c2nc(-c3ccccn3)c(-c3ccc4c(c3)OCO4)[nH]2)cc1 [SB431542],lung fibrosis in S. pneumoniae-inoculated Cyld−/− lungs,"lung fibrosis; 10 mg per kg body weight intraperitoneal, 2-weeks post infection",inhibited
CCCCOc1cc(CC2CNC(=O)N2)ccc1OC (centres unmarked) [Ro20-1724],NTHi-induced up-regulation of CYLD at both mRNA and protein levels,CYLD [1],markedly enhanced
Cn1cc(C2=C(c3ccc(Cl)cc3Cl)C(=O)NC2=O)c2ccccc21 [SB216763],WT-CYLD-induced Smad3 decrease,"Smad3 [3]; A549 cells, 5 μM for 12 h",reversed
C[S+]([O-])c1ccc(-c2nc(-c3ccc(F)cc3)c(-c3ccncc3)[nH]2)cc1 (centres unmarked) [SB203580],lung fibrosis in Cyld−/− mice,"lung fibrosis; S. pneumoniae infection, 20 mg kg−1 intraperitoneal 1-2 hours before inoculation",did not affect
COc1ccc(C2CNC(=O)C2)cc1OC1CCCC1 (centres unmarked) [rolipram],NTHi-induced up-regulation of CYLD at both mRNA and protein levels,CYLD [1],markedly enhanced
same,up-regulation of CYLD at the mRNA level and protein level in the middle ear mucosa,"CYLD [4]; mouse model of OM, Q-PCR and IF staining",enhanced
same,CYLD expression in the middle ear,CYLD [4]; [7],up-regulated
same,NTHi-induced mRNA expression of these cytokines in CYLD-deficient cells,[2]; CYLD-deficient cells,failed to inhibit
same,concentration at which NTHi-induced inflammatory response was suppressed,[2],10 µM
same,NTHi-induced NF-κB activation,"[2]; HMEEC, A549, primary NHBE cells",potently inhibited
same,"NTHi-induced up-regulation of IL-1β, IL-8 and TNF-α in CYLD-depleted cells","[2]; HMEEC, A549, primary NHBE cells, CYLD depleted with siRNA CYLD",no longer inhibited
same,"NTHi-induced up-regulation of pro-inflammatory mediators IL-1β, IL-8 and TNF-α at the mRNA and protein levels","[2]; HMEEC, A549, primary NHBE cells, Q-PCR and ELISA",potently inhibited
same,"NTHi-induced otoscopic pathological changes of OM (congestion and swelling of tympanic membranes, mucous effusion)","[5]; i.p. administration, NTHi-inoculated mice, otoscopic examination",inhibited
same,middle ear mucosal thickening and PMN infiltration in the middle ear mucosa,"[5]; i.p. administration, histopathologic analysis",inhibited
same,"NTHi-induced up-regulation of IL-1β and MIP-2, middle ear mucosal thickening and PMN infiltration","[5]; i.p. administration, mouse OM model, CYLD-deficiency context",no longer inhibited
same,NTHi-induced up-regulation of the proinflammatory mediators in the middle ear of mouse,[5]; mouse,inhibited
same,middle ear inflammation,[5]; [7],suppressed
same,activation of NF-κB induced by overexpressing constitutively active IKKβ or wild-type p65,NF-κB,did not significantly inhibit
"CCCCCCCCCCCCCCCCCCOCC(COC(=O)OC1C(O)C(O)C(O)C(CO)C1O)OC [Akt inhibitor, 1L6-Hydroxymethyl-chiro-inositol-2(R)-2-O-methyl-3-O-octadecyl-sn-glycerocarbonate]",Smad3 protein expression,Smad3 [6],markedly reduced
same,enhanced TGF-β-induced SBE promoter activity,TGF-β-signalling,inhibited
COc1ccc([C@]2(C#N)CC[C@@H](C(=O)O)CC2)cc1OC1CCCC1 [cilomilast],NTHi-induced inflammatory response,[2],no significant inhibitory effect
same,PDE4 subfamily selectivity (PDE4B versus PDE4D),PDE4B / PDE4D,more PDE4D selective
CC(C)C[C@@H](C=O)NC(=O)[C@H](CC(C)C)NC(=O)[C@H](CC(C)C)NC(=O)OCc1ccccc1 [MG132] (Cbz-Leu-Leu-Leu-aldehyde),WT-CYLD-induced decrease in Smad3 protein level,"Smad3 [3]; WT-CYLD-transfected cells, 20 μM",reversed
same,WT-CYLD-induced decrease in TGF-β-induced PAI-1 expression,PAI-1,reversed
